Here are results for 11 compounds from patent publication US8309685B2 (Celgene Avilomics Research, Inc., priority 2007, dated 2012).

For data set [1], the system named is HCV RNA replicon in cell line ET (luc-ubi-neo/ET), human Huh7 hepatoma. The data set can be described thus: Method A: HCV RNA replicon antiviral assay (luciferase, ET cell line). In kind it is cell-based, Hepatitis C virus. The conditions noted are these: Hepatitis C virus, Huh-7; Replicon, assay of Example 22; 72 hr; read-out: Inhibition, Replicon. The essentials: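 Six 3-fold dilutions of each drug were tested on subconfluent luc-ubi-neo/ET Huh7 replicon cells (5×10^3/well) for 72 hr at 37 °C. EC50 and EC90 came from luciferase read-out, IC50 from CytoTox-1 cell number, and […]; interferon alpha-2b was run each time as control.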

Data set [2] has as its target T1, D168A mutant of the HCV NS3/4A 1b protease enzyme (Hepatitis C virus genotype 1b, UniProt P26663, D1194A).
T1 construct: 10× stocks of NS3/4A protease enzyme from Bioenza (Mountain View, Calif.); purchased Bioenza (Mountain View, Calif.)
The data set can be described thus: HCV Protease FRET Assay (IC50), D168A mutant. The conditions noted are these: read-out: Inhibition, HCV D168A; D168A enzyme, FRET assay. Type of data set: biochemical. On the procedure:
(§1) HCV Protease FRET Assay for Wild Type and Mutated NS3/4A 1b Enzymes (IC50)
(§2) Protease reactions were started with the addition of 45 μL of the FRET substrate and monitored for 120 minutes at λex487/λem514 through Quad^4 monochromoters in a Synergy^4 plate reader from BioTek (Winooski, Vt.). At the conclusion of each assay, progress curves from each well were examined for linear reaction kinetics and fit statistics (R^2, absolute sum of squares).
(§3) The compound numbers correspond to the compound numbers in Table 3.

Data set [3] relates to cell line ET (luc-ubi-neo/ET), human Huh7 hepatoma cell line. The experiment in a line: Method A: cytotoxicity in ET replicon cells (CytoTox-1). In kind it is cell-based. The settings on record: concentration decreasing cell viability by 50%, 72 hr. The protocol:
The compounds were assayed to evaluate the antiviral activity and cytotoxicity of compounds in vitro using HCV RNA replicons. This assay used the cell line ET (luc-ubi-neo/ET), which is a human Huh7 hepatoma cell line that contains an HCV RNA replicon with a stable luciferase (Luc) reporter and three cell culture-adaptive mutations. […]
The ET cell line was grown in Dulbecco's modified essential media (DMEM), 10% fetal bovine serum (FBS), 1% penicillin-streptomycin (pen-strep), 1% glutamine, 250 μg/ml G418 in a 5% CO2 incubator at 37° C. All cell culture reagents were obtained from Mediatech (Manassas, Va.). Cells were trypsinized (1% trypsin:EDTA) and plated out at 5×10^3 cells/well in white 96-well assay plates (Costar) dedicated to cell number (cytotoxicity) or antiviral activity assessments. Drugs were added at six 3-fold concentrations each and the assay was run in DMEM, 5% FBS, 1% pen-strep, 1% glutamine. Human interferon alpha-2b (PBL Biolabs, New Brunswick, N.J.) was included in each run as a positive control compound. Cells were processed 72 hr post drug addition when the cells are still subconfluent. Antiviral activity was measured by analyzing replicon-derived luciferase activity using the Steady-Glo Luciferase Assay System (Promega, Madison, Wis.) according to manufacturer's instruction. The number of cells in each well was determined by CytoTox-1 reagent (Promega). […].
For orientation: Replicon systems follow genome replication, usually without infectious particles.

For data set [4], the target named is T2, wild type HCV NS3/4A 1b protease enzyme (Hepatitis C virus genotype 1b, UniProt P26663).
T2 construct: 10× stocks of NS3/4A protease enzyme from Bioenza (Mountain View, Calif.); purchased Bioenza (Mountain View, Calif.)
The experiment in a line: biochemical. The settings on record: read-out: Inhibition, WT; WT enzyme, FRET assay. In kind it is biochemical. The protocol:
as §1, §2, §3

Data set [5] relates to HCV RNA replicon in cell line ET (luc-ubi-neo/ET), human Huh7 hepatoma. The data set can be described thus: Luciferase Assay (Example 35), replicon-derived luciferase activity. In kind it is cell-based. The settings on record: Hepatitis C virus, Huh-7; assay described in Example 35. On the procedure: The compounds were assayed to evaluate the antiviral activity and cytotoxicity of compounds using replicon-derived luciferase activity. This assay used the cell line ET (luc-ubi-neo/ET), which is a human Huh7 hepatoma cell line that contains an HCV RNA replicon with a stable luciferase (Luc) reporter and cell culture-adaptive mutations. The ET cell line was grown in a 5% CO2 incubator at 37° C. in Dulbecco's modified essential media (DMEM) supplemented with 2 mM L-glutamine, nonessential amino acids, 100 U of penicillin/ml, 100 μg of streptomycin/mL, and 10% fetal bovine serum. G418 (Geneticin; Invitrogen) was added at a final concentration of 400 ug//mL.
All cell culture reagents were obtained from Invitrogen (Carlsbad). Cells were trypsinized (1% trypsin:EDTA) and plated out at 5×10^3 cells/well in white 96-well assay plates (Costar) dedicated to cell number (cytotoxicity) or antiviral activity assessments. Test compounds were added at six 3-fold concentrations each and the assay was run in DMEM, 5% FBS, 1% pen-strep, 1% glutamine, 1% non essential amino acid. Human interferon alpha-2b (PBL Biolabs, New Brunswick, N.J.) was included in each run as a positive control compound. Cells were processed 72 hr post test compound addition when the cells were still subconfluent. Antiviral activity was measured by analyzing replicon-derived luciferase activity using the Steady-Glo Luciferase Assay System (Promega, Madison, Wis.) according to manufacturer's instruction. The number of cells in each well was determined by Cell Titer Blue Assay (Promega). Compound profile was derived by calculating applicable EC50 (effective concentration inhibiting virus replication by 50%), EC90 (effective concentration inhibiting virus replication by 90%), IC50 (concentration decreasing cell viability by 50%) and SI50 (selective index: […]) values.

Data set [6] addresses T1, D168A mutant of the HCV NS3/4A 1b protease enzyme. The data set can be described thus: HCV Protease FRET Assay (IC50_APP), D168A mutant. In kind it is biochemical. The conditions noted are these: apparent IC50, D168A mutant; read-out: IC50_APP, HCV D168A.
Data set [7] concerns the target T2, wild type HCV NS3/4A 1b protease enzyme. The data set can be described thus: HCV Protease FRET Assay (IC50_APP), wild type. Type of data set: biochemical.
The target of data set [8] is T3, R155K mutant of the HCV NS3/4A 1b protease enzyme (Hepatitis C virus genotype 1b, UniProt P26663, R1181K).
T3 construct: 10× stocks of NS3/4A protease enzyme from Bioenza (Mountain View, Calif.); purchased Bioenza (Mountain View, Calif.)
The experiment in a line: HCV Protease FRET Assay (IC50_APP), R155K mutant. Type of data set: biochemical. The settings on record: apparent IC50, R155K mutant; read-out: IC50_APP, HCV R155K. On the procedure: HCV Protease FRET Assay for WT and Mutated NS3/4A 1b Enzymes (IC50—APP).
The following protocol was used to generate “apparent” IC50 (IC50—APP) values as depicted in Table 6, below. […] 5 μL of each enzyme were added to Corning (#3575) 384-well, black, microtiter plates (Corning, N.Y.) after spotting a 0.5 μL volume of 50% DMSO and serially diluted compounds prepared in 50% DMSO. Protease reactions were immediately started after enzyme addition with the addition of 45 μL of the FRET substrate and monitored for 60-90 minutes at λex485/λem520 in a Synergy^4 plate reader from BioTek (Winooski, Vt.). At the conclusion of each assay, progress curves from each well were examined for linear reaction kinetics and fit statistics (R^2, 95% confidence intervals, absolute sum of squares).
The compound numbers correspond to the compound numbers in Table 3. […] ;

Where [9] appears, read: read-out: IC50_APP, WT, apparent IC50, wild type NS3/4A 1b.

As for `C=C[C@@H]1C[C@]1(NC(=O)[C@@H]1C[C@@H](Oc2cc(-c3ccccc3)nc3cc(OC)ccc23)CN1C(=O)C1(NC(=O)OC(C)(C)C)CCN(C(=O)CCl)CC1)C(=O)NS(=O)(=O)c1ccccc1` [Compound I-25, tert-butyl-1-(2-chloroacetyl)-4-((2S,4R)-4-(7-methoxy-2-phenylquinolin-4-yloxy)-2-((1R,2S)-1-(phenylsulfonylcarbamoyl)-2-vinylcyclopropylcarbamoyl)pyrrolidine-1-carbonyl)piperidin-4-ylcarbamate], the IC50 is more than 10000 nM in data set [1], 10 to 100 nM in data set [2] and less than 10 nM in data set [4]. Further, the “Inhibition, Cytotoxicity” value in data set [3] was “C (IC50>100 nM and ≦1000 nM)”.

As to `C=CC(=O)N1CCC(NC(=O)OC(C)(C)C)(C(=O)N2C[C@H](Oc3cc(-c4ccccc4)nc4cc(OC)ccc34)C[C@H]2C(=O)N[C@]2(C(=O)NS(=O)(=O)c3ccccc3)C[C@H]2C=C)CC1` [Compound I-26, tert-butyl-1-acryloyl-4-((2S,4R)-4-(7-methoxy-2-phenylquinolin-4-yloxy)-2-((1R,2S)-1-(phenylsulfonylcarbamoyl)-2-vinylcyclopropylcarbamoyl)pyrrolidine-1-carbonyl)piperidin-4-ylcarbamate], the IC50 in data set [1] is more than 10000 nM; in data set [2], 100 to 1000 nM; in data set [4] it was less than 10 nM. Further, the “Inhibition, Cytotoxicity” value in data set [3] is “E (IC50≧10,000 nM)”.

As to `C=CC(=O)N[C@H](C(=O)N1C[C@H](Oc2nccc3cc(OC)ccc23)C[C@H]1C(=O)N[C@]1(C(=O)NS(=O)(=O)C2CC2)C[C@H]1C=C)C(C)(C)O` [Compound I-131], the EC50 (as a rule, the midpoint of the concentration-response curve) in data set [5] was in the range of 100 to 1000 nM. The values for the IC50 in data set [6], in data set [7] (setting [9]) and in data set [8] were 10 to 100 nM, less than 10 nM and 10 to 100 nM, respectively.

In data set [5], `C=C[C@@H]1C[C@]1(NC(=O)[C@@H]1C[C@@H](Oc2nccc3cc(OC)ccc23)CN1C(=O)[C@H](CC(=O)C(=C)C)NC(=O)OC(C)(C)C)C(=O)NS(=O)(=O)C1CC1` [Compound I-132] returned an EC50 of 100 to 1000 nM. The IC50 in data set [6], in data set [7] (setting [9]) and in data set [8] was less than 10 nM throughout.

`C=C[C@@H]1C[C@]1(NC(=O)[C@@H]1C[C@@H](Oc2nccc3cc(OC)ccc23)CN1C(=O)[C@H](CCC(=O)C#CC(C)(C)C)NC(=O)OC(C)(C)C)C(=O)NS(=O)(=O)C1CC1` [Compound I-135] gave a 50% effective concentration (EC50) in data set [5] of 10 to 100 nM. The IC50 in data set [6], in data set [7] (setting [9]) and in data set [8] was less than 10 nM each time.

In turn, `C=C[C@@H]1C[C@]1(NC(=O)[C@@H]1C[C@@H](Oc2nccc3cc(OC)ccc23)CN1C(=O)[C@H](CCC(=O)/C=C\C(C)(C)C)NC(=O)OC(C)(C)C)C(=O)NS(=O)(=O)C1CC1` [Compound I-136] gave a concentration for a half-maximal effect (EC50) in data set [5] of less than 10 nM. In addition, the IC50 is 100 to 1000 nM in data set [6], less than 10 nM in data set [7] (setting [9]) and 100 to 1000 nM in data set [8].

Regarding `C=C[C@@H]1C[C@]1(NC(=O)[C@@H]1C[C@@H](Oc2nccc3cc(OC)ccc23)CN1C(=O)[C@H](CCC(=O)C#Cc1ccccc1)NC(=O)OC(C)(C)C)C(=O)NS(=O)(=O)C1CC1` [Compound I-138], the 50% effective concentration (EC50) in data set [5] was in the range of 100 to 1000 nM. For the same compound, the values for the IC50 in data set [6], in data set [7] (setting [9]) and in data set [8] were 10 to 100 nM, less than 10 nM and less than 10 nM, respectively.

With `C=C[C@@H]1C[C@]1(NC(=O)[C@@H]1C[C@@H](Oc2nccc3cc(OC)ccc23)CN1C(=O)[C@H](CCC(=O)/C=C/C)NC(=O)OC(C)(C)C)C(=O)NS(=O)(=O)C1CC1` [Compound I-139], the EC50 in data set [5] was 10 to 100 nM. The IC50 in data set [6], in data set [7] (setting [9]) and in data set [8] was less than 10 nM throughout.

In turn, `C=C(C)C(=O)C[C@H](NC(=O)OC(C)(C)C)C(=O)N1C[C@H](Oc2nccc3cc(OC)ccc23)C[C@H]1C(=O)N[C@]1(C(=O)NS(=O)(=O)C2CC2)C[C@H]1CC` [Compound I-140] had an EC50 in data set [5] of 100 to 1000 nM. Further, the IC50 is 10 to 100 nM in data set [6], less than 10 nM in data set [7] (setting [9]) and less than 10 nM in data set [8].

`C=C[C@@H]1C[C@]1(NC(=O)[C@@H]1C[C@@H](Oc2nccc3cc(OC)ccc23)CN1C(=O)[C@H](CCC(=O)/C=C/C1CCCC1)NC(=O)OC(C)(C)C)C(=O)NS(=O)(=O)C1CC1` [Compound I-141, tert-butyl-(S,E)-7-cyclopentyl-1-((2S,4R)-2-((1R,2S)-1-(cyclopropylsulfonylcarbamoyl)-2-vinylcyclopropylcarbamoyl)-4-(6-methoxyisoquinolin-1-yloxy)pyrrolidin-1-yl)-1,5-dioxohept-6-en-2-ylcarbamate] displayed an EC50 in data set [5] of less than 10 nM. Besides, the IC50 is 100 to 1000 nM in data set [6], less than 10 nM in data set [7] and 10 to 100 nM in data set [8].

In turn, `C=C[C@@H]1C[C@]1(NC(=O)[C@@H]1C[C@@H](Oc2nccc3cc(OC)ccc23)CN1C(=O)[C@@H](C)NC(=O)CC)C(=O)NS(=O)(=O)C1CC1` [I^R-100, (2S,4R)—N-((1R,2S)-1-(cyclopropylsulfonylcarbamoyl)-2-vinylcyclopropyl)-4-(6-methoxyisoquinolin-1-yloxy)-1-((R)-2-propionamidopropanoyl)pyrrolidine-2-carboxamide] showed a concentration giving a half-maximal response (EC50) in data set [5] of 1000 to 10000 nM. For the same compound, the IC50 in data set [6] was in the range of 1000 to 10000 nM; in data set [7], 100 to 1000 nM; in data set [8], 1000 to 10000 nM.
